{"source": "patent US6489098B1", "about": "“Means and methods for monitoring nucleoside reverse transcriptase inhibitor antiretroviral therapy and guiding therapeutic decisions in the treatment of HIV/AIDS” (ViroLogic, Inc., priority 1998, dated 2002)", "key": {"[1]": {"system": "HIV with multiple ZDV resistance mutations", "details": "read-out: IC50 (high-level resistance); cited from earlier work"}, "[2]": {"system": "HIV with RT Leu74→Val mutation", "details": "cited from earlier work"}, "[3]": {"system": "HIV with RT Thr69→Asp mutation", "details": "cited from earlier work"}, "[4]": {"system": "HIV isolates of 13 ZDV-naive patients", "details": "13 ZDV-naive patients followed for 18 to 22 months on d4T; d4T maximum; ZDV five patients; ddI three subjects; cited from earlier work"}, "[5]": {"system": "patient RTV-757, RTV-844, RTV-937, RTV-964 and RTV-966 (4 or more AZT resistance mutations)", "assay": "Phenotypic susceptibility assay, patient isolates with AZT resistance-associated mutations", "type": "cell-based, HIV-1", "method": "In these experiments patient-derived segment(s) corresponding to the HIV protease and reverse transcriptase coding regions were either patient-derived segments amplified by the reverse transcription-polymerase chain reaction method (RT-PCR) using viral RNA isolated from viral particles present in the serum of HIV-infected individuals or were mutants of wild type HIV-1 made by site directed mutagenesis of a parental clone of resistance test vector DNA. Isolation of viral RNA was performed using standard procedures (e.g. RNAgents Total RNA Isolation System, Promega, Madison Wis. or RNAzol, Tel-Test, Friendswood, Tex.). The RT-PCR protocol was divided into two steps. A retroviral reverse transcriptase [e.g. Moloney MuLV reverse transcriptase (Roche Molecular Systems, Inc., Branchburg, N.J.), or avian myeloblastosis virus (AMV) reverse transcriptase, (Boehringer Mannheim, Indianapolis, Ind.)] was used to copy viral RNA into cDNA. […]\nResistance tests were carried out with resistance test vectors using two host cell types. […] The resistance test vector viral particles were then used to infect a second host cell (the target host cell) in which the expression of the indicator gene is measured. […]"}}, "note": "pIC50: −log10 of the molar value. “Also recorded” adds a separate entry of the source."}
{"molecule": "Cc1cn([C@H]2C[C@H](N=[N+]=[N-])[C@@H](CO)O2)c(=O)[nH]c1=O", "note": "[AZT, zidovudine]", "values": [{"measurement": "pIC50", "setting": "[1]", "value": "< 6.00"}]}
{"molecule": "Nc1ccn([C@H]2CC[C@@H](CO)O2)c(=O)n1", "note": "[ddC, zalcitabine]", "values": [{"measurement": "fold reduction in sensitivity", "setting": "[2]", "value": "around ten-fold"}, {"measurement": "fold reduction in sensitivity", "setting": "[3]", "value": "five-fold"}]}
{"molecule": "Cc1cn([C@H]2C=C[C@@H](CO)O2)c(=O)[nH]c1=O", "note": "[d4T, stavudine]", "values": [{"measurement": "fold decrease in sensitivity", "setting": "[4]", "value": "≤ 12", "unit": "fold"}, {"measurement": "fold reduced susceptibility", "setting": "[5]; four patient viruses with 4 or more AZT resistance mutations (FIG. 6)", "value": "3-6 fold"}, {"measurement": "susceptibility compared to wild-type control RTV", "setting": "[5]; patient RTV pools with multiple AZT-resistance mutations", "value": "decrease in susceptibility to d4T; also recorded: significant decreases in susceptibility to d4T"}]}
